{"source": "patent US10221171B2", "about": "“Oxathiazole thiazolium Hsp 70 inhibitors” (THE REGENTS OF THE UNIVERSITY OF CALIFORNIA, priority 2015, dated 2019)", "type_in_all_cases": "cell-based", "key": {"MDA-MB-231": {"tested_on": "MDA-MB-231", "assay": "MTT cell viability assay, MDA-MB-231", "conditions": "Homo sapiens", "method": "(§1) Cells were then treated with compound at various concentrations in 0.2 mL media. After the 72-hour incubation period, cells were washed in PBS (3×100 μL), and 10 μL MTT reagent was added with 100 μL fresh media. Cells were then incubated for 4 hr in a humidified chamber at 37° C. with 5% CO2. Insoluble formazan crystals were solubilized by addition of 0.1 mL detergent solution (4 hr at room temp., dark). Resulting colored solutions were then quantified at an absorbance of 570 nm."}, "MEF (C57BL/6)": {"tested_on": "MEF (C57BL/6)", "assay": "MTT cell viability assay, MEF (C57BL/6)", "conditions": "Mus musculus", "method": "as §1"}, "MCF-7": {"tested_on": "MCF-7", "assay": "MTT cell viability assay, MCF-7", "conditions": "Homo sapiens, read-out: IC50/μM MCF-7", "method": "as §1"}, "[1]": {"conditions": "MTT, 72-hour incubation, read-out: IC50/μM MEF (C57BL/6)"}, "[2]": {"conditions": "MDA-MB-231, 72 h, 72-hour incubation"}, "[3]": {"conditions": "72 h, read-out: IC50/μM MEF (C57BL/6), MTT, 72-hour incubation"}, "[4]": {"conditions": "MCF7, 72 h, MTT, 72-hour incubation"}}, "note": "Where two headings read alike, the source gives them in different places."}
{"smiles": "CCn1c(=O)/c(=C2\\Sc3cc(SC)ccc3N2C)s/c1=C\\c1scc[n+]1Cc1c(Cl)cccc1Cl", "note": "[JG-354]", "values": [{"measurement": "IC50", "setting": "MDA-MB-231; MDA-MB-231, 72-hour incubation", "value": "0.096 ± 0.01", "unit": "µM"}, {"measurement": "IC50", "setting": "MEF (C57BL/6); [1]", "value": "1.1 ± 0.1", "unit": "µM"}, {"measurement": "IC50", "setting": "MCF-7; MCF7, MTT, 72-hour incubation", "value": "0.13 ± 0.01", "unit": "µM"}]}
{"smiles": "CCn1c(=O)/c(=C2\\Sc3cc(C)ccc3N2C)s/c1=C\\c1scc[n+]1Cc1ccsc1", "note": "[JG-279]", "values": [{"measurement": "IC50", "setting": "MDA-MB-231; MDA-MB-231, 72-hour incubation", "value": "0.15 ± 0.01", "unit": "µM"}, {"measurement": "IC50", "setting": "MEF (C57BL/6); [1]", "value": "2.2 ± 0.1", "unit": "µM"}, {"measurement": "IC50", "setting": "MCF-7; MCF7, MTT, 72-hour incubation", "value": "0.14 ± 0.03", "unit": "µM"}]}
{"smiles": "CCn1c(=O)/c(=C2\\Sc3ccc(C)cc3N2C)s/c1=C\\c1scc[n+]1Cc1ccccc1C(=O)OC", "note": "[JG-364]", "values": [{"measurement": "IC50", "setting": "MDA-MB-231; MDA-MB-231, 72-hour incubation", "value": "0.11 ± 0.01", "unit": "µM"}, {"measurement": "IC50", "setting": "MEF (C57BL/6); [1]", "value": "2.3 ± 0.2", "unit": "µM"}, {"measurement": "IC50", "setting": "MCF-7; MCF7, MTT, 72-hour incubation", "value": "0.15 ± 0.01", "unit": "µM"}]}
{"smiles": "CCn1c(=O)/c(=C2\\Sc3cc(SC)ccc3N2C)s/c1=C\\c1scc[n+]1Cc1ccccc1OC", "note": "[JG-358]", "values": [{"measurement": "IC50", "setting": "MDA-MB-231; MDA-MB-231, 72-hour incubation", "value": "0.11 ± 0.01", "unit": "µM"}, {"measurement": "IC50", "setting": "MEF (C57BL/6); [1]", "value": "1.6 ± 0.1", "unit": "µM"}, {"measurement": "IC50", "setting": "MCF-7; MCF7, MTT, 72-hour incubation", "value": "0.22 ± 0.01", "unit": "µM"}]}
{"smiles": "CCn1c(=O)/c(=C2\\Sc3cc(F)ccc3N2C)s/c1=C\\c1scc[n+]1[C@H](C)c1ccccc1", "note": "[JG-340]", "values": [{"measurement": "IC50", "setting": "MDA-MB-231; MDA-MB-231, 72-hour incubation", "value": "0.38 ± 0.03", "unit": "µM"}, {"measurement": "IC50", "setting": "MEF (C57BL/6); [1]", "value": "1.5 ± 0.05", "unit": "µM"}, {"measurement": "IC50", "setting": "MCF-7; MCF7, MTT, 72-hour incubation", "value": "0.24 ± 0.03", "unit": "µM"}]}
{"smiles": "CCn1c(=O)/c(=C2\\Sc3cc(F)ccc3N2C)s/c1=C\\c1scc[n+]1Cc1ccccc1SC(F)(F)F", "note": "[JG-254]", "values": [{"measurement": "IC50", "setting": "MDA-MB-231; MDA-MB-231, 72-hour incubation", "value": "0.1 ± 0.01", "unit": "µM"}, {"measurement": "IC50", "setting": "MEF (C57BL/6); [1]", "value": "1.5 ± 0.1", "unit": "µM"}, {"measurement": "IC50", "setting": "MCF-7; MCF7, MTT, 72-hour incubation", "value": "0.65 ± 0.13", "unit": "µM"}]}
{"smiles": "CCn1c(=O)/c(=C2\\Sc3cc([N+](=O)[O-])ccc3N2C)s/c1=C\\c1scc[n+]1Cc1ccccc1", "note": "[JG-252]", "values": [{"measurement": "IC50", "setting": "MDA-MB-231; [2]", "value": "4.8 ± 0.4", "unit": "µM"}, {"measurement": "IC50", "setting": "MEF (C57BL/6); [3]", "value": "2.8 ± 0.1", "unit": "µM"}, {"measurement": "IC50", "setting": "MCF-7; MCF7, MTT, 72-hour incubation", "value": "> 5", "unit": "µM"}]}
{"smiles": "CCn1c(=O)/c(=C2\\Sc3cc(Cl)ccc3N2C)s/c1=C\\c1scc[n+]1Cc1ccc(Cl)cc1", "note": "[JG-255]", "values": [{"measurement": "IC50", "setting": "MDA-MB-231; [2]", "value": "0.41 ± 0.06", "unit": "µM"}, {"measurement": "IC50", "setting": "MEF (C57BL/6); [3]", "value": "3.1 ± 0.3", "unit": "µM"}, {"measurement": "IC50", "setting": "MCF-7; [4]", "value": "1.45 ± 0.13", "unit": "µM"}]}
{"smiles": "CCn1c(=O)/c(=C2\\Sc3cc(SC)ccc3N2C)s/c1=C\\c1scc[n+]1Cc1ccc(C(F)(F)F)o1", "note": "[JG-314]", "values": [{"measurement": "IC50", "setting": "MDA-MB-231; MDA-MB-231, 72-hour incubation", "value": "0.25 ± 0.04", "unit": "µM"}, {"measurement": "IC50", "setting": "MEF (C57BL/6); [1]", "value": "4.8 ± 0.9", "unit": "µM"}, {"measurement": "IC50", "setting": "MCF-7; MCF7, MTT, 72-hour incubation", "value": "0.57 ± 0.08", "unit": "µM"}]}
{"smiles": "CCn1c(=O)/c(=C2\\Sc3cc(F)c(F)cc3N2C)s/c1=C\\c1scc[n+]1Cc1ccccc1", "note": "[JG-251]", "values": [{"measurement": "IC50", "setting": "MDA-MB-231; MDA-MB-231, 72-hour incubation", "value": "1.1 ± 0.1", "unit": "µM"}, {"measurement": "IC50", "setting": "MEF (C57BL/6); [1]", "value": "0.91 ± 0.06", "unit": "µM"}, {"measurement": "IC50", "setting": "MCF-7; MCF7, MTT, 72-hour incubation", "value": "2.5 ± 0.5", "unit": "µM"}]}
{"smiles": "CCn1c(=O)/c(=C2\\Sc3cc(OC)ccc3N2C)s/c1=C\\c1scc[n+]1CCc1ccccc1C(F)(F)F", "note": "[JG-377]", "values": [{"measurement": "IC50", "setting": "MDA-MB-231; MDA-MB-231, 72-hour incubation", "value": "0.19 ± 0.03", "unit": "µM"}, {"measurement": "IC50", "setting": "MEF (C57BL/6); [1]", "value": "> 10", "unit": "µM"}, {"measurement": "IC50", "setting": "MCF-7; MCF7, MTT, 72-hour incubation", "value": "0.12 ± 0.01", "unit": "µM"}]}
{"smiles": "CCn1c(=O)/c(=C2\\Sc3cc(C(C)C)ccc3N2C)s/c1=C\\c1scc[n+]1Cc1ccccc1OC(F)(F)F", "note": "[JG-325]", "values": [{"measurement": "IC50", "setting": "MDA-MB-231; [2]", "value": "0.21 ± 0.01", "unit": "µM"}, {"measurement": "IC50", "setting": "MEF (C57BL/6); [3]", "value": "0.48 ± 0.02", "unit": "µM"}, {"measurement": "IC50", "setting": "MCF-7; MCF7, 72 h", "value": "0.09 ± 0.005", "unit": "µM"}]}
{"smiles": "CCn1c(=O)/c(=C2\\Sc3cc(Cl)ccc3N2C)s/c1=C\\c1scc[n+]1Cc1nc(C)sc1C", "note": "[JG-274]", "values": [{"measurement": "IC50", "setting": "MDA-MB-231; MDA-MB-231, 72-hour incubation", "value": "0.08 ± 0.008", "unit": "µM"}, {"measurement": "IC50", "setting": "MEF (C57BL/6); [1]", "value": "4.2 ± 0.4", "unit": "µM"}, {"measurement": "IC50", "setting": "MCF-7; MCF7, MTT, 72-hour incubation", "value": "0.098 ± 0.008", "unit": "µM"}]}
{"smiles": "CCn1c(=O)/c(=C2\\Sc3cc(C)ccc3N2C)s/c1=C\\c1scc[n+]1CCc1cccc(Cl)c1", "note": "[JG-382]", "values": [{"measurement": "IC50", "setting": "MDA-MB-231; MDA-MB-231, 72-hour incubation", "value": "0.46 ± 0.06", "unit": "µM"}, {"measurement": "IC50", "setting": "MEF (C57BL/6); [1]", "value": "1.2 ± 0.1", "unit": "µM"}, {"measurement": "IC50", "setting": "MCF-7; MCF7, MTT, 72-hour incubation", "value": "0.59 ± 0.03", "unit": "µM"}]}
{"smiles": "C=CCn1c(=O)/c(=C2\\Sc3cc(C)ccc3N2C)s/c1=C\\c1scc[n+]1Cc1ccccc1", "note": "[JG-341]", "values": [{"measurement": "IC50", "setting": "MDA-MB-231; MDA-MB-231, 72-hour incubation", "value": "0.11 ± 0.01", "unit": "µM"}, {"measurement": "IC50", "setting": "MEF (C57BL/6); [1]", "value": "1.6 ± 0.1", "unit": "µM"}, {"measurement": "IC50", "setting": "MCF-7; MCF7, MTT, 72-hour incubation", "value": "0.15 ± 0.01", "unit": "µM"}]}
{"smiles": "CCn1c(=O)/c(=C2\\Sc3ccc(C)cc3N2C)s/c1=C\\c1scc[n+]1Cc1ccccc1OC(F)(F)F", "note": "[JG-368]", "values": [{"measurement": "IC50", "setting": "MDA-MB-231; [2]", "value": "0.18 ± 0.01", "unit": "µM"}, {"measurement": "IC50", "setting": "MEF (C57BL/6); [3]", "value": "1.4 ± 0.1", "unit": "µM"}, {"measurement": "IC50", "setting": "MCF-7; [4]", "value": "0.089 ± 0.006", "unit": "µM"}]}
{"smiles": "CCn1c(=O)/c(=C2\\Sc3cc(C)ccc3N2C)s/c1=C\\c1scc[n+]1CCc1ccccc1OC", "note": "[JG-390]", "values": [{"measurement": "IC50", "setting": "MDA-MB-231; MDA-MB-231, 72-hour incubation", "value": "0.12 ± 0.01", "unit": "µM"}, {"measurement": "IC50", "setting": "MEF (C57BL/6); [1]", "value": "1.2 ± 0.1", "unit": "µM"}, {"measurement": "IC50", "setting": "MCF-7; MCF7, MTT, 72-hour incubation", "value": "0.31 ± 0.04", "unit": "µM"}]}
{"smiles": "CCn1c(=O)/c(=C2\\Sc3cc(Br)ccc3N2C)s/c1=C\\c1scc[n+]1Cc1ccccc1OC(F)(F)F", "note": "[JG-291]", "values": [{"measurement": "IC50", "setting": "MDA-MB-231; MDA-MB-231, 72-hour incubation", "value": "0.14 ± 0.01", "unit": "µM"}, {"measurement": "IC50", "setting": "MEF (C57BL/6); [1]", "value": "2.3 ± 0.1", "unit": "µM"}, {"measurement": "IC50", "setting": "MCF-7; MCF7, MTT, 72-hour incubation", "value": "0.14 ± 0.01", "unit": "µM"}]}
{"smiles": "CCn1c(=O)/c(=C2\\Sc3cc(OC)ccc3N2C)s/c1=C\\c1scc[n+]1Cc1ccccc1Cl", "note": "[JG-301]", "values": [{"measurement": "IC50", "setting": "MDA-MB-231; [2]", "value": "0.033 ± 0.005", "unit": "µM"}, {"measurement": "IC50", "setting": "MEF (C57BL/6); [3]", "value": "0.66 ± 0.01", "unit": "µM"}, {"measurement": "IC50", "setting": "MCF-7; [4]", "value": "0.048 ± 0.003", "unit": "µM"}]}
{"smiles": "CCn1c(=O)/c(=C2\\Sc3cc(F)ccc3N2C)s/c1=C\\c1scc[n+]1Cc1csc(NC(C)=O)n1", "note": "[JG-262]", "values": [{"measurement": "IC50", "setting": "MDA-MB-231; MDA-MB-231, 72-hour incubation", "value": "> 20", "unit": "µM"}, {"measurement": "IC50", "setting": "MEF (C57BL/6); [1]", "value": "> 10", "unit": "µM"}, {"measurement": "IC50", "setting": "MCF-7; MCF7, MTT, 72-hour incubation", "value": "> 5", "unit": "µM"}]}
